# Measured values: patent publication US11452730B2, “Applications of desogestrel in the preparation of breast cancer ER-negative Ah receptor-positive products” (SHANGHAI JIAO TONG UNIVERSITY, priority 2015, dated 2022)
# Like-named read-outs stand apart in the source and are kept apart here.
# What was measured:
# Format in all cases: cell-based
# [1] = test system: ER-negative Ah receptor-positive MDA-MB-468 breast cancer cells; test: CellTiter-Glo luminescent cell viability assay, MDA-MB-468 96-well drug screening plate; details: Homo sapiens, 72 hours
# Description: RKO cells, LoVo cells, and MDA-MB-468 ductal breast cancer cells were handled as described above, and RKO 96-well cell culture plates, 96-well LoVo cell culture plates, and 96-well MDA-MB-468 cell culture plates were obtained, respectively. The complete medium for ER-negative Ah receptor-positive MDA-MB-468 breast cancer cells was Leibovitz's L-15 (a live product), Cat #11415064, with a cells/well density of 12000. a) DMSO was used to dilute the analyte desogestrel to 20 mM for use. b) 79 μL of the 20 mM analyte prepared in step a) was added to the first well in the first row of the dilution plate, and then 54 μL of DMSO solution was added to the second through ninth wells of the first row. 25 μL of solution was aspirated from the first to the second well, and after mixing well 25 μL of solution was aspirated from the second to the third well, and this was repeated until the 9th well in order to ensure that 3.16 dilution of the medication would be carried out one-by-one. b) 95 μl of cell-specific complete medium was added to the working plate, each medication to 9 wells. […] The final concentrations (μM) of the analyte drug in wells 2-10 in FIG. 1 are, in order: 100, 31.64557, 10.01442, 3.16912, 1.002886, 0.317369, 0.100433, 0.031783, 0.010058; c) 100 μl of CellTiter-Glo reagent (prepared as described in 1 above) was added to all drug screening plates and mixed evenly. d) It was thoroughly oscillated in a 96-well microplate oscillator for 2 minutes to allow the cells to undergo full lysis. e) It was stored away from light at room temperature for 15 minutes before carrying out luminescent signal detection to ensure signal stability. f) An EnSpire multi-function plate reader was used at 570 nm to read the luminescent signals.
# RKO colon cancer cells = test: CellTiter-Glo luminescent cell viability assay, RKO 96-well drug screening plate; details: 72 hours
# Description: (§1) In example 1, CELLTITER-GLO was used to test desogestrel for colon cancer RKO cells, LoVo cells, and MDA-MB-468 ductal breast cancer cells were handled as described above, and RKO 96-well cell culture plates, 96-well LoVo cell culture plates, and 96-well MDA-MB-468 cell culture plates were obtained, respectively. The complete medium for RKO cells was DMEM (a live product), Cat #11995081, with a cells/well density of 12000. a) DMSO was used to dilute the analyte desogestrel to 20 mM for use. b) 79 μL of the 20 mM analyte prepared in step a) was added to the first well in the first row of the dilution plate, and then 54 μL of DMSO solution was added to the second through ninth wells of the first row. 25 μL of solution was aspirated from the first to the second well, and after mixing well 25 μL of solution was aspirated from the second to the third well, and this was repeated until the 9th well in order to ensure that 3.16 dilution of the medication would be carried out one-by-one. b) 95 μl of cell-specific complete medium was added to the working plate, each medication to 9 wells. […] The final concentrations (μM) of the analyte drug in wells 2-10 in FIG. 1 are, in order: 100, 31.64557, 10.01442, 3.16912, 1.002886, 0.317369, 0.100433, 0.031783, 0.010058; a) Before testing, the RKO 96-well drug screening plate and the LoVo 96-well drug screen plate described in 3 above were stabilized to room temperature for 20-30 minutes. c) 100 μl of CellTiter-Glo reagent (prepared as described in 1 above) was added to all drug screening plates and mixed evenly. d) It was thoroughly oscillated in a 96-well microplate oscillator for 2 minutes to allow the cells to undergo full lysis. e) It was stored away from light at room temperature for 15 minutes before carrying out luminescent signal detection to ensure signal stability. f) An EnSpire multi-function plate reader was used at 570 nm to read the luminescent signals.
# [2] = test system: BT-474 ductal breast cancer cells; test: CellTiter-Glo luminescent cell viability assay, BT-474 cells (same method); details: Homo sapiens, Table 1
# From the text: Ductal breast cancer cells BT-474, complete medium basis of RPMI-1640 (a live product), Cat #A1049101, with a cells/well density of 4,000. The same method was used to test desogestrel's action on the IC50 value of BT-474 ductal breast cancer cells; results are shown in Table 1.
# LoVo colon cancer cells = test: CellTiter-Glo luminescent cell viability assay, LoVo 96-well drug screening plate; details: Homo sapiens, 72 hours
# Description: as §1, with “for LoVo” for “for RKO”, “was MEM” for “was DMEM”, “Cat #10370021,” for “Cat #11995081,”, “of 8000.” for “of 12000.”
smiles,measurement,setting,value
C#C[C@]1(O)CC[C@H]2[C@@H]3CCC4=CCCC[C@@H]4[C@H]3C(=C)C[C@@]21CC [desogestrel],EC50,"[1]; FIG. 4, ER-negative Ah receptor-positive breast cancer, MDA-MB-468 plate",11.3 µM
same,IC50,"[1]; FIG. 4, ER-negative Ah receptor-positive breast cancer, MDA-MB-468 plate, read-out: IC50",12.5 µM
same,IC50,"[1]; MDA-MB-468 cells, Table 1, read-out: IC50 value",12.5 µM
same,EC50,"RKO colon cancer cells; FIG. 2, colon cancer, RKO 96-well drug screening plate",136 µM
same,IC50,"RKO colon cancer cells; FIG. 2, colon cancer, RKO 96-well drug screening plate, read-out: IC50",32.1 µM
same,IC50,"RKO colon cancer cells; Homo sapiens, RKO cells, Table 1, read-out: IC50 value",26.2 µM
same,IC50,[2],≥ 100 µM
same,EC50,"LoVo colon cancer cells; FIG. 3, colon cancer, LoVo 96-well drug screening plate",26.3 µM
same,IC50,"LoVo colon cancer cells; FIG. 3, colon cancer, LoVo 96-well drug screening plate, read-out: IC50",26.2 µM
same,IC50,"LoVo colon cancer cells; LoVo cells, Table 1, read-out: IC50 value",32.1 µM
